Test results: patent US6555714B1, “Inhibitors of hydroxyphenylpyruvate dioxygenase and an assay for identification of inhibitors” (Hoechst Aktiengesellschaft, priority 1993, dated 2003)
Where “and” joins values, the source holds several entries; their conditions need not be identical. Identical values can stand only once.

Tests used:
[1] = target: anabolic plant HPPD (p-hydroxyphenylpyruvate dioxygenase) from maize (Zea mays, UniProt A0A1D6H1G0); assay type: biochemical; details: for IC50: Table 1 of compounds of formula (I), HPPD inhibition, IC50 is a molar concentration
Sequence of anabolic plant HPPD (p-hydroxyphenylpyruvate dioxygenase) from maize (A0A1D6H1G0 entry or part of it): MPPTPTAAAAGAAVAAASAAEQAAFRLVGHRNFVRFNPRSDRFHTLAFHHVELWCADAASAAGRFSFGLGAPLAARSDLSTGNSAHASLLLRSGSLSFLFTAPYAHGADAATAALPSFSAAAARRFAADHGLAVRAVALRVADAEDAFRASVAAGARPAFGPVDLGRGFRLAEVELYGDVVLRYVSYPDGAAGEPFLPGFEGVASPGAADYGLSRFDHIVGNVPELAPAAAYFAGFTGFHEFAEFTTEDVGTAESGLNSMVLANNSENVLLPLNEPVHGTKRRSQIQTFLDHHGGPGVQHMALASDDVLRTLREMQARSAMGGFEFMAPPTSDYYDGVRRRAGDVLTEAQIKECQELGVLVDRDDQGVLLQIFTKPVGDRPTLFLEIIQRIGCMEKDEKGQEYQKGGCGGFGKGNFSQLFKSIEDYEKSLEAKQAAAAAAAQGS
Description: A modified form of the method for measuring catabolic HPPDs from human liver has been described by Lindblad (Lindblad, B. (1971) Clin. Chim. Acta 34, 113-121). End-point measurements are used in this case for detecting ^14C—CO2, which is liberated from ^14C-p-hydroxyphenylpyruvate by the enzymatic activity of HPPD.
To enrich the anabolic HPPD from plant tissues, young etiolated maize plants were homogenized in extraction buffer (20 mM phosphate buffer pH 7.0; 0.14 M KCl; 0.1 mg/ml glutathione and 1% insoluble polyvinylpyrrolidone) for 3×10 seconds, for example in a Waring blender. The extract was filtered (all other isolation steps were carried out at 4° C.) and centrifuged (20 minutes; 10,000 g). The supernatant was subjected to fractional ammonium sulfate precipitation. […] At this stage, it was possible to store the enzyme at −80° C. following dialysis in a suitable buffer, such as, for example, 20 mM phosphate buffer pH 7.0; 0.14 M KCl; 0.1 mg/ml glutathione.
The enzyme assays were performed in 20 ml polyethylene screw-top containers. Two hypodermic needles (0.9×40 mm) were pushed through the screw-top cap. One of the hypodermic needles was bent to form a hook onto which a small filter paper disk of diameter 10 mm was placed. The filter paper was moistened with 25 μl of methylbenzethonium hydroxide (Sigma). The second hypodermic needle was used for injecting start and stop solution into the screw-top container.
The enzyme reaction mix contained:
1 ml of 0.1 M phosphate buffer, pH 7.3;
2 g/l of bovine liver catalase;
100 μl of a mixture of 3 mM dichlorophenol-indophenol and
150 mM glutathione (reduced);
25 μl of acetone (or potential inhibitors dissolved in acetone) and
enzyme in a total volume of 1,635 μl.
After preincubation for 5 minutes at 30° C., the reaction was started by injecting 800 μl of ^14C-p-hydroxyphenylpyruvate. The reaction was stopped by injecting 600 μl of 1 N H2SO4, incubation was continued for 15 minutes, and the radioactivity which was liberated was determined on the small filter paper disks in a liquid scintillation counter.
(§1) FEBS-Letters, 1993, 318 (2), 162-166.

Lemna gibba [2] = assay: Growth inhibition of Lemna; assay type: in vivo; details: for inhibition at 100 µM: 10^−4 M; for inhibition at 10 µM: 10^−5 M; for inhibition at 1 µM: 10^−6 M
Text: as §1

[3] = test system: plastoquinone biosynthesis in wheat; assay: Incorporation of radioactivity from 14C-tyrosine into plastoquinone in wheat (thin-layer chromatography); assay type: in vivo; details: wheat plants sprayed with 100 g/ha in screening formulation, FIG. 1
Description: Thin-layer chromatography analysis of the incorporation of radioactivity from ^14C-tyrosine into plastoquinone. […] The lipophilic metabolites of the wheat were extracted using chloroform, separated on silica gel 60 HPTLC plates using chloroform: diethyl ether (99:1), and the radioactivity was analyzed by thin-layer scanner.

Lemna gibba [4] = assay: Neutralization of the effect of SC-0051 by homogentisic acid, number of Lemna gibba plants; assay type: in vivo; details: day six
Description: HPPD catalyzes the transformation of p-hydroxyphenylpyruvate to homogentisic acid. If HPPD inhibition is responsible for the herbicidal activity of an inhibitor, then it should be possible to neutralize the herbicidal effect by supplementation with homogentisic acid. […] The plant was grown in a sterile aqueous medium supplemented as described in Table 1.
Batches of three Lemna plants in 100 ml of sterile medium were incubated for six days with sterile-filtered supplements. […] The number of newly formed plants was determined on day six.

| Compound | IC50 [1] [µM] | inhibition at 100 µM (Lemna gibba [2]) [%] | inhibition at 10 µM (Lemna gibba [2]) [%] | inhibition at 1 µM (Lemna gibba [2]) [%] | melting point | also measured |
| --- | --- | --- | --- | --- | --- | --- |
| 2-(2,4-Dichlorobenzoyl)-1,4-quinone [Example No. 91] | 0.018 | – | – | – | – | – |
| Cc1cc(Cl)cc(C(=O)c2ccc(S(C)(=O)=O)cc2Cl)c1O [Example No. 100, 2,5′-Dichloro-2′-hydroxy-3′-methyl-4-methylsulfonylbenzophenone] | 0.0062 | 98 | 96 | 92 | 175 to 180 °C | – |
| CS(=O)(=O)c1ccc(C(=O)c2c(O)cc(Cl)cc2Cl)c(Cl)c1 [Example No. 183, 2,2′,4′-Trichloro-6′-hydroxy-4-methylsulfonylbenzophenone] | 0.0048 | 98 | 82 | 81 | 123 to 126 °C and 123 to 125 °C | – |
| CS(=O)(=O)c1ccc(C(=O)C2C(=O)CCCC2=O)c(Cl)c1 [SC-0051, 2-(2-chloro-4-methanesulfonylbenzoyl)-1,3-cyclohexanedione] | – | – | – | – | – | Plastoquinone biosynthesis (incorporation of radioactivity from tyrosine into plastoquinone) [3]: inhibited; Number of L. gibba plants (Lemna gibba [4]; 10^−7 M SC-0051, medium supplemented with 1 mM HGA): 32; Number of L. gibba plants (Lemna gibba [4]; 10^−7 M SC-0051, medium supplemented with 1 mM HPPD): 2; Number of L. gibba plants (Lemna gibba [4]; 10^−7 M SC-0051, no supplementation of the medium, start three plants): 3 |
| CC1(C)CON(Cc2ccccc2Cl)C1=O [clomazone, reference compound] | – | – | – | – | – | Inhibition of HPPD (in words) ([1]; partially purified maize HPPD, FIG. 2): no inhibitory action |
| CS(=O)(=O)c1ccc(C(=O)c2cc(C(=O)O)ccc2O)c(Cl)c1 [compound 88] | 0.07 | – | – | – | 254 to 256 °C | – |
